For this assay, the target named is T1, Ketohexokinase (KHK) (Homo sapiens, UniProt P50053).
T1 construct: His tag; made in house; host or cells: E. coli
T1 sequence (P50053 1-298): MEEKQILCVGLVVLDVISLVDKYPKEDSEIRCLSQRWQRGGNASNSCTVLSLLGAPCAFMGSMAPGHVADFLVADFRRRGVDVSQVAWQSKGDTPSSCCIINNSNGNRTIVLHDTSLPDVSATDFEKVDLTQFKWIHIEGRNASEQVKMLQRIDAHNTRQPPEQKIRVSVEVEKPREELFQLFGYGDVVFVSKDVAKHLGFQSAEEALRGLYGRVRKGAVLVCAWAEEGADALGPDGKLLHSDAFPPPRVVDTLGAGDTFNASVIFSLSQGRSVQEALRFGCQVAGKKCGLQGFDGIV
Briefly: measurement of activity in vitro of ketohexokinase inhibitor (Transcreener ADP2 TR-FRET Red Assay, ADP produced). It is filed as biochemical. The note with it: KHK pre-reacted with inhibitor 30 minutes, then substrate (ATP, fructose) 15 minutes; Ki by Morrison equation. As to the method:
Ketohexokinase (KHK) was expressed in E. Coli and purified using His tag. In order to measure the activity of the purified KHK, Transcreener ADP2 TR-FRET Red Assay kit of BellBrook Labs was used. A method of measuring the amount of ADP produced was used using TR-FRET after reacting a solution including a suitable concentration of KHK protein and ATP, and fructose for 15 minutes. In order to see the activity of a ketohexokinase (KHK) inhibitor, ketohexokinase (KHK) and a suitable concentration of an inhibitor were reacted first for 30 minutes, and then, reacted with a solution including the substrate of ketohexokinase (KHK) for 15 minutes. Then, reaction for TR-FRET was performed for 1 hour, and fluorescence was measured using Envision equipment of PerkinElmer. According to the optimization procedure of TR-FRET published by BellBrook Lab, the set value of the Envision equipment was determined.
The result values by concentration of the ketohexokinase (KHK) inhibitor were determined as the ratio of a wavelength of 665 nm and a wavelength of 615nm. The 665/615 ratio value by concentration of each inhibitor was converted to ADP concentration based on ADP standard curve, and inhibition activity Ki value was obtained using Morrison equation by statistical software (Prizm). Meanwhile, the Ki value is a value representing the binding affinity of the inhibitor and an enzyme, and a lower value means better inhibitory activity.
For orientation: TR-FRET usually uses a lanthanide donor and a delayed reading to cut background.

On to `C[C@H]1CCN1c1nc(-c2cnc(OCC(=O)N3CCNCC3)c(Cl)c2)c2c(n1)C(F)(F)CC2` [Example 38], for which the Ki (as a rule, a measure of affinity in units of concentration, obtained from inhibition or displacement) is not above 10 nM.
`C[C@H]1CCN1c1nc(-c2ccc(CC(=O)O)cc2)c2c(n1)C(F)(F)CC2` [Example 29]: the Ki was 10 to 100 nM.
With `Cc1c(-c2ccc(OCC(=O)N3CCNCC3)nc2)nc(N2CC[C@@H]2C)nc1C(F)(F)F` [Example 40, (S)-2-((5-(5-methyl-2-(2-methylazetidin-1-yl)-6-(trifluoromethyl)pyrimidin-4-yl)pyridin-2-yl)oxy)-1-(piperazin-1-yl)ethan-1-one] the figure was not above 10 nM; with `C[C@H]1CCN1c1nc(N2CC(OCC(=O)N3CCNCC3)C2)c2c(n1)C(F)(F)CC2` [Example 3, (S)-2-((1-(7,7-difluoro-2-(2-methylazetidin-1-yl)-6,7-dihydro-5H-cyclopenta[d]pyrimidin-4-yl)azetidin-3-yl)oxy)-1-(piperazin-1-yl)ethan-1-one], not above 10 nM.
The value for `C[C@H]1CCN1c1nc(-c2ccc(OCC(=O)N3CCNCC3)nc2)cc(C(F)(F)F)n1` [Example 39, (S)-2-((5-(2-(2-methylazetidin-1-yl)-6-(trifluoromethyl)pyrimidin-4-yl)pyridin-2-yl)oxy)-1-(piperazin-1-yl)ethan-1-one] was not above 10 nM.
With `C[C@H]1CCN1c1nc(N2CCN(CC(=O)N3CCNCC3)C(=O)C2)c2c(n1)C(F)(F)CC2` [Example 16, (S)-4-(7,7-difluoro-2-(2-methylazetidin-1-yl)-6,7-dihydro-5H-cyclopenta[d]pyrimidin-4-yl)-1-(2-oxo-2-(piperazin-1-yl)ethyl)piperazin-2-one] the figure was not above 10 nM; with `C[C@H]1CCN1c1nc(N2CC(OCC(=O)N3CCNCC3)C2)c2c(n1)C(F)(F)CCC2` [Example 4], 10 to 100 nM; with `C[C@H]1CCN1c1nc(N2CCN(CC(=O)N3CCOCC3)CC2)c2c(n1)C(F)(F)CC2` [Example 14, (S)-2-4-(7,7-difluoro-2-(2-methylazetidin-1-yl)-6,7-dihydro-5H-cyclopenta[d]pyrimidin-1-yl)-1-(piperazin-1-yl)morpholinoethan-1-one], 10 to 100 nM.
As for `CC(=O)N1CCN(C(=O)C[C@@H]2[C@@H]3C[C@H]2CN(c2nc(N4CC[C@@H]4C)nc4c2CCC4(F)F)C3)CC1` [Example 22, 1-(4-acetylpiperazin-1-yl)-2-((1R,5S,6S)-3-(7,7-difluoro-2-((S)-2-methylazetidin-1-yl)-6,7-dihydro-5H-cyclopenta[d]pyrimidin-4-yl)-3-azabicyclo[3.1.1]heptan-6-yl)ethan-1-one], the Ki is 100 to 1000 nM.
The value for `C[C@H]1CCN1c1nc(N2CC[C@H](CC(=O)N3CCNCC3)C2)c2c(n1)C(F)(F)CC2` [Example 9] was not above 10 nM; that for `C[C@H]1CCN1c1nc(N2C[C@@H]3[C@@H](CC(=O)N4CCNCC4)[C@@H]3C2)c2c(n1)C(F)(F)CC2` [Example 18, 2-((1R,5S,6R)-3-(7,7-difluoro-2-((S)-2-methylazetidin-1-yl)-6,7-dihydro-5H-cyclopenta[d]pyrimidin-4-yl)-3-azabicyclo[3.1.0]hexan-6-yl)-1-(piperazin-1-yl)ethan-1-one] was not above 10 nM; that for `C[C@H]1CCN1c1nc(N2CC(OCC(=O)N3CCNCC3)C2)cc(C(F)(F)F)n1` [Example 1, (S)-2-((1-(2-(2-methylazetidin-1-yl)-6-(trifluoromethyl)pyrimidin-4-yl)azetidin-3-yl)oxy)-1-(piperazin-1-yl)ethan-1-one] was 10 to 100 nM.
With `C[C@H]1CCN1c1nc(-c2ccc(OCC(=O)N3CCNCC3)c(Cl)c2)c2c(n1)C(F)(F)CC2` [Example 35] the figure was not above 10 nM.
With `C[C@H]1CCN1c1nc(-c2ccc(OCC(=O)N3CCNCC3)nc2)c2c(n1)C(F)(F)CC2` [Example 37] the figure was not above 10 nM; with `C[C@H]1CCN1c1nc(-c2cc(F)c(OCC(=O)N3CCNCC3)c(F)c2)c2c(n1)C(F)(F)CC2` [Example 34], not above 10 nM.
As for `C[C@H]1CCN1c1nc(N2CC(OCC(=O)N3CCNCC3)C2)c(Cl)c(C(F)(F)F)n1` [Example 2, (S)-2-((1-(5-chloro-2-(2-methylazetidin-1-yl)-6-(trifluoromethyl)pyrimidin-4-yl)azetidin-3-yl)oxy)-1-(piperazin-1-yl)ethan-1-one], the Ki is not above 10 nM.
The value for `C[C@H]1CCN1c1nc(N2CC[C@@H](OCC(=O)N3CCNCC3)C2)c2c(n1)C(F)(F)CC2` [Example 8, 2-(((R)-1-(7,7-difluoro-2-((S)-2-methylazetidin-1-yl)-6,7-dihydro-5H-cyclopenta[d]pyrimidin-4-yl)pyrrolidin-3-yl)oxy)-1-(piperazin-1-yl)ethan-1-one] was not above 10 nM; that for `C[C@H]1CCN1c1nc(N2CCN(CC(=O)N3CCNCC3)CC2)c2c(n1)C(F)(F)CC2` [Example 13, (S)-2-4-(7,7-difluoro-2-(2-methylazetidin-1-yl)-6,7-dihydro-5H-cyclopenta[d]pyrimidin-1-yl)-1-(piperazin-1-yl)ethan-1-one] was not above 10 nM.
`Cc1c(N2CC(OCC(=O)N3CCNCC3)C2)nc(N2CC[C@@H]2C)nc1C(F)(F)F` [Example 26, (S)-2-((1-(5-methyl-2-(2-methylazetidin-1-yl)-6-(trifluoro)pyrimidin-4-yl)azetidin-3-yl)oxy)-1-(piperazin-1-yl)ethan-1-one] gave a Ki not above 10 nM.
The molecule `CC1CCN1c1nc(N2CC3CC(C2)C3CC(=O)N2CCNCC2)c2c(n1)C(F)(F)CCC2` [Example 23, 2-((1R,5S,6S)-3-(8,8-difluoro-2-((S)-2-methylazetidin-1-yl)-5,6,7,8-tetrahydroquinazolin-4-yl)-3-azabicyclo[3.1.1]heptan-6-yl)-1-(piperazin-1-yl)ethan-1-one] gave a Ki of 10 to 100 nM.
The value for `C[C@H]1CCN1c1nc(C2CCN(CC(=O)N3CCNCC3)CC2)c2c(n1)C(F)(F)CC2` [Example 17, (S)-2-(4-(7,7-difluoro-2-(2-methylazetidin-1-yl)-6,7-dihydro-5H-cyclopenta[d]pyrimidin-4-yl)piperidin-1-yl)-1-(piperazin-1-yl)ethan-1-one] was not above 10 nM; that for `C[C@H]1CCN1c1nc(N2CC[C@H](OCC(=O)N3CCNCC3)C2)cc(C(F)(F)F)n1` [Example 6, 2-(((S)-1-(2-((S)-2-methylazetidin-1-yl)-6-(trifluoromethyl)pyrimidin-4-yl)pyrrolidin-3-yl)oxy)-1-(piperazin-1-yl)ethan-1-one] was 100 to 1000 nM; that for `C[C@H]1CCN1c1nc(N2CCN(CC(=O)N3CCNCC3)C(=O)C2)cc(C(F)(F)F)n1` [Example 12, (S)-4-(2-(2-methylazetidin-1-yl)-6-(trifluoromethyl)pyrimidin-4-yl)-1-(2-oxo-2-(piperazin-1-yl)ethyl)piperazin-2-one] was 10 to 100 nM.
With `C[C@H]1CCN1c1nc(N2CC[C@H](OCC(=O)N3CCNCC3)C2)c2c(n1)C(F)(F)CC2` [Example 7, 2-(((2S,3R)-1-(7,7-difluoro-2-((S)-2-methylazetidin-1-yl)-6,7-dihydro-5H-cyclopenta[d]pyrimidin-4-yl)pyrrolidin-3-yl)oxy)-1-(piperazin-1-yl)ethan-1-one] the figure was not above 10 nM.

The values above are taken from patent EP4434982A1, “(S)-2-(2-METHYLAZETIDIN-1-YL)PYRIMIDINE DERIVATIVE AND PHARMACEUTICAL COMPOSITION COMPRISING SAME” (LG Chem, Ltd., priority 2021, dated 2023).
